{"source": "patent US11746116B2", "about": "“Antibiotic resistance breakers” (KING'S COLLEGE LONDON, priority 2017, dated 2023)", "test_system": "extended bacterial panel", "assay": "MIC against an extended bacterial panel (Table 15)", "format": "cell-based", "note": "Read-outs that look alike come from different tables or passages of the source."}
{"smiles": "CC(=O)NC[C@H]1CN(c2ccc(N3CCOCC3)c(F)c2)C(=O)O1", "note": "[Linezolid]", "values": [{"measurement": "MIC", "setting": "Staphylococcus aureus, ATCC 700699 / MRSA / VISA, Staphylococcus aureus Mu50, ATCC 700699, MRSA/VISA, read-out: MIC", "result": 2, "unit": "µg/mL"}, {"measurement": "MIC", "setting": "Staphylococcus aureus, MRSA / NRS 3 / VISA, Staphylococcus aureus NRS3, MRSA/VISA, read-out: MIC", "result": 1, "unit": "µg/mL"}, {"measurement": "MIC", "setting": "Staphylococcus aureus, MRSA / NRS 17 / VISA, Staphylococcus aureus NRS17, MRSA/VISA, read-out: MIC", "result": 2, "unit": "µg/mL"}, {"measurement": "MIC", "setting": "Staphylococcus aureus, MRSA / NRS 22 / USA600 / VISA, Staphylococcus aureus NRS22, USA600 MRSA/VISA, read-out: MIC", "result": 4, "unit": "µg/mL"}, {"measurement": "MIC", "setting": "Staphylococcus aureus, MRSA / NRS 56 / VISA, Staphylococcus aureus NRS56, MRSA/VISA, read-out: MIC", "result": 2, "unit": "µg/mL"}, {"measurement": "MIC", "setting": "Staphylococcus aureus, MRSA / NRS 100, Staphylococcus aureus COL, NRS100, MRSA, read-out: MIC", "result": 2, "unit": "µg/mL"}, {"measurement": "MIC", "setting": "Staphylococcus aureus, MRSA / NRS 269, Staphylococcus aureus NRS269, MRSA TGC-NS, read-out: MIC", "result": 2, "unit": "µg/mL"}, {"measurement": "MIC", "setting": "Staphylococcus aureus, MRSA / NRS 402 / VISA, Staphylococcus aureus NRS402, MRSA/VISA DAP-NS", "result": 1, "unit": "µg/mL"}, {"measurement": "MIC", "setting": "Staphylococcus aureus, MRSA / VISA, Staphylococcus aureus FDA-CDC AR-BANK# 0215, MRSA/VISA, read-out: MIC", "result": 4, "unit": "µg/mL"}, {"measurement": "MIC", "setting": "Staphylococcus aureus, MRSA / VISA, Staphylococcus aureus FDA-CDC AR-BANK# 0216, MRSA/VISA, read-out: MIC", "result": 2, "unit": "µg/mL"}, {"measurement": "MIC", "setting": "Staphylococcus aureus, MRSA / VISA, Staphylococcus aureus FDA-CDC AR-BANK# 0217, MRSA/VISA, read-out: MIC", "result": 1, "unit": "µg/mL"}, {"measurement": "MIC", "setting": "Staphylococcus aureus, MRSA / VISA, Staphylococcus aureus FDA-CDC AR-BANK# 0218, MRSA/VISA Mupirocin-R, read-out: MIC", "result": 1, "unit": "µg/mL"}, {"measurement": "MIC", "setting": "Staphylococcus aureus, MRSA / VISA, Staphylococcus aureus FDA-CDC AR-BANK# 0219, MRSA/VISA, read-out: MIC", "result": 2, "unit": "µg/mL"}, {"measurement": "MIC", "setting": "Staphylococcus aureus, MRSA / VISA, Staphylococcus aureus FDA-CDC AR-BANK# 0220, MRSA/VISA, read-out: MIC", "result": 2, "unit": "µg/mL"}, {"measurement": "MIC", "setting": "Staphylococcus aureus, MRSA / VISA, Staphylococcus aureus FDA-CDC AR-BANK# 0221, MRSA/VISA, read-out: MIC", "result": 2, "unit": "µg/mL"}, {"measurement": "MIC", "setting": "Staphylococcus aureus, MRSA / VISA, Staphylococcus aureus FDA-CDC AR-BANK# 0223, MRSA/VISA, read-out: MIC", "result": 2, "unit": "µg/mL"}, {"measurement": "MIC", "setting": "Staphylococcus aureus, MRSA / VISA, Staphylococcus aureus FDA-CDC AR-BANK# 0224, MRSA/VISA Mupirocin-R, read-out: MIC", "result": 4, "unit": "µg/mL"}, {"measurement": "MIC", "setting": "Staphylococcus aureus, MRSA / VISA, Staphylococcus aureus FDA-CDC AR-BANK# 0225, MRSA/VISA, read-out: MIC", "result": 2, "unit": "µg/mL"}, {"measurement": "MIC", "setting": "Staphylococcus aureus, MRSA / VISA, Staphylococcus aureus FDA-CDC AR-BANK# 0226, MRSA/VISA, read-out: MIC", "result": 2, "unit": "µg/mL"}, {"measurement": "MIC", "setting": "Staphylococcus aureus, MRSA / VISA, Staphylococcus aureus FDA-CDC AR-BANK# 0227, MRSA/VISA, read-out: MIC", "result": 4, "unit": "µg/mL"}, {"measurement": "MIC", "setting": "Staphylococcus aureus, MRSA / VISA, Staphylococcus aureus FDA-CDC AR-BANK# 0228, MRSA/VISA Mupirocin-R, read-out: MIC", "result": 2, "unit": "µg/mL"}, {"measurement": "MIC", "setting": "Staphylococcus aureus, MRSA / VRSA, Staphylococcus aureus VRS1, VanA MRSA/VRSA, read-out: MIC", "result": 2, "unit": "µg/mL"}, {"measurement": "MIC", "setting": "Staphylococcus aureus, MRSA / VRSA, Staphylococcus aureus VRS2, VanA MRSA/VRSA, read-out: MIC", "result": 2, "unit": "µg/mL"}, {"measurement": "MIC", "setting": "Staphylococcus aureus, MRSA / VRSA, Staphylococcus aureus VRS3a, VanA MRSA/VRSA, read-out: MIC", "result": 4, "unit": "µg/mL"}, {"measurement": "MIC", "setting": "Staphylococcus aureus, MRSA / VRSA, Staphylococcus aureus VRS11b, VanA MRSA/VRSA, read-out: MIC", "result": 2, "unit": "µg/mL"}, {"measurement": "MIC", "setting": "Staphylococcus aureus, MRSA, Staphylococcus aureus ECL 2963666, MRSA DAP-NS, read-out: MIC", "result": 1, "unit": "µg/mL"}, {"measurement": "MIC", "setting": "Staphylococcus aureus, NRS 12 / VISA, Staphylococcus aureus NRS12, VISA, read-out: MIC", "result": 4, "unit": "µg/mL"}, {"measurement": "MIC", "setting": "Staphylococcus aureus, VISA, Staphylococcus aureus FDA-CDC AR-BANK# 0222, VISA, read-out: MIC", "result": 2, "unit": "µg/mL"}, {"measurement": "MIC", "setting": "Staphylococcus aureus, VRSA, Staphylococcus aureus ECL 2963646, VRSA, read-out: MIC", "result": 2, "unit": "µg/mL"}, {"measurement": "MIC", "setting": "Staphylococcus epidermidis, NRS7, Staphylococcus epidermidis NRS7, VISE, read-out: MIC", "result": 4, "unit": "µg/mL"}, {"measurement": "MIC", "setting": "Staphylococcus epidermidis, NRS8, Staphylococcus epidermidis NRS8, VISE, read-out: MIC", "result": 2, "unit": "µg/mL"}, {"measurement": "MIC", "setting": "Staphylococcus epidermidis, NRS60, Staphylococcus epidermidis NRS60, VISE, read-out: MIC", "result": 2, "unit": "µg/mL"}]}
